{"source": "patent US20040259905A1", "about": "“Aqueous ecabet sodium solution preparation” (priority 2001, published 2004)", "assay": "Solubility of ecabet sodium in aqueous solution", "assay_type": "physicochemical", "details": "pH less than pH 7", "note": "Structures can show the parent of a compound that is named as a salt.", "data": [{"smiles": "CC(C)c1cc2c(cc1S(=O)(=O)O)[C@@]1(C)CCC[C@@](C)(C(=O)O)[C@@H]1CC2", "note": "[ecabet sodium, (+)-(1R,4aS,10aR)-1,2,3,4,4a,9,10,10a-octahydro-1,4a-dimethyl-7-(1-methylethyl)-6-sulfo-1-phenanthrencarboxylic acid 6-sodium salt pentahydrate]", "values": [{"measurement": "solubility in an aqueous solution", "result": "low"}]}]}
